Tests used:
[1] = biological target: T1, human leukocyte elastase (ELH) (Homo sapiens, UniProt P08246); experiment: in vitro anti-elastasic activity, Me-OSAAPV-p-NA substrate, spectrophotometry; format: biochemical; settings: even in a small amount (0.01% to 0.2%)
T1 sequence (P08246 30-267): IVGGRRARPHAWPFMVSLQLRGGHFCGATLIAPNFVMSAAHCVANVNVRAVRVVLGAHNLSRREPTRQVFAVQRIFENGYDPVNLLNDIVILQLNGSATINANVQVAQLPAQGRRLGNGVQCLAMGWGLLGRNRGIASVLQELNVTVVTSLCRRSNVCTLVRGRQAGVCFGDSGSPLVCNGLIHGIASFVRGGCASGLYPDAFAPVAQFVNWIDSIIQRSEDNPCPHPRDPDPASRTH
Description: The anti-elastasic activity of compounds according to the invention is determined in vitro compared to the human leukocyte elastase (ELH).
The test is performed in the following way:
A Me-OSAAPV-p-NA (méthyl-O-succinate alanine alanine proline valine-p-nitroaniline) substrate, onto which ELH (40 milli-units per ml) and 0.1% of the compound to be tested are applied, is left for incubating at 37° C. for 60 minutes.
Thereafter, the % inhibition of the control elastase activity is determined by spectrophotometry.

[2] = biological target: T1, human leukocyte elastase (ELH); experiment: ex vivo activity on surviving human skin fragments treated with ELH, 10 days culture (Example 5); format: cell-based; settings: 0.5 μg ELH per ml; 5 μl of 0.2% compound in ethanol every two days; 10 days at 37° C.; control 7.4%, ELH alone 5.1%
Description: (§1) The ex vivo activity of example 2 compound has been evaluated on surviving human skins treated by a human leukocyte elastase (ELH).
The test is performed the following way:
Fragments of normal human skin from three different donors are deposited in inserts positioned in culture wells. Culture medium added with antibiotics is added in the bottom of the wells. A pass is performed through slow diffusion between the two compartments via a porous membrane (pore size: 12 μm).
The culture medium is renewed every three days.
On the skin fragments, optionally 0.5 μg ELH per ml culture medium are added.
5 μl of the compound to be tested are also added every two days, previously put in solution at 0.2% by weight in ethanol.
The skins are kept surviving for 10 days at 37° C.
(§2) The elastic fibres are coloured in blue using catechin (+) and quantified morphometrically using a computer assisted image analysis. The average derma surface percentage occupied by elastic fibres is evaluated this way.

[3] = biological target: T1, human leukocyte elastase (ELH); experiment: ex vivo activity on fresh human skin cuts treated with ELH for 2 hours (Example 4); format: cell-based; settings: 20° C.
Description: as §1
The test is performed the following way.
Fresh human skin cuts from two different donors are treated for 2 hours, at 20° C., by 20 μl of a buffer solution (pH 7.4) optionally comprising 10 μg/ml ELH and optionally 0.1% of the compound to be tested, optionally previously put in solution in ethanol.
as §2

For CC(=O)N(c1cccc(C(F)(F)F)c1)C(C(=O)NCC(=O)O)C(C)C (stereo not shown) [Compound A, {2-[acetyl-(3-trifluoromethyl-phenyl)-amino]-3-méthyl-butyryl-amino}acetic acid], which “inhibition of the elastase activity (in words)” value [1] is on record?
Its value is “strong inhibition”.

And the “% Surface occupied by elastic fibres” value [2]?
The value was 7.1%.

And the “% Surface occupied by elastic fibres” value ([3]; Skin 1, 10 μg/ml ELH + 0.1% compound, control 12.7%, ELH alone 4.85%)?
Its value is 13.95%.

And the “% Surface occupied by elastic fibres” value ([3]; Skin 2, 10 μg/ml ELH + 0.1% compound, control 15.25%, ELH alone 6.85%)?
Its value is 11.85%.

From US7838020B2, “Cosmetic or dermatological composition comprising an association between a compound of the N-acylaminoamide family and at least one matrix metalloproteinase inhibitor” (L'Oreal, priority 2001, dated 2010)
